Data as given in patent US5674977A, “Branched synthetic peptide conjugate” (The Ontario Cancer Institute, priority 1994, dated 1997).
Numbered stars: 1 amine (or outer) side, 2 acyl side, 3 side chain; on linkers, the order of the positions; unused ones are H or OH. Square brackets hold non-standard residues; d marks the D form. Peptide text beside a SMILES is read from it. X1 = C[C@@H](O)[C@@H](C(=O)[*:2])N(c1c2ccccc2nc2ccccc12)[*:1]

Tested on: CHO cells
Test: MTT cell viability (cytotoxicity) assay
Assay type: cell-based, Chinese hamster
Conditions: concentrations as high as 100 μM, 2 hour incubation period
Description: The cytotoxicity of peptide 1 and octopeptides 2-5 was established in Chinese hamster ovary (CHO) cells in order to select a minimal octopeptide concentration suitable for detecting the constructs by flow cytometry and fluorescence microscopy on live cells. The cytotoxicity of each construct was established using the MTT cell viability assay (FIG. 1; Mosmann, 1983). […] Linear polymers having a mass of less than 13 kDa were shown not to be cytotoxic to HeLa cells (Arnold et al., 1979). […] At a concentration of 1 μM, none of the octopeptides were cytotoxic to CHO cells (FIG. 1). […] The penetration and localization of acridine and rhodamine chromophores in viable CHO cells were observed during fluorescence microscopy and flow cytometry experiments by exposing cells to concentrations of octopeptides ranging from 0.1 to 1 μM. […]
The quantitative MTT colorimetric assay developed by Mosmann (1983) was used to determine the toxicity of peptide constructs of the invention toward CHO cells. […] The blue MTT formazan product generated by living cells was quantified by measuring the optical density of the cellular extract at 620 nm. […] Absorbance values were translated into measurements of cell viability and reflect the average of experiments performed in triplicate.

CC(C)[C@H](NC(=O)[C@H](CCCCN)NC(=O)[C@H](CCCNC(=N)N)NC(=O)[C@H](CCCCN)NC(=O)[C@H](CCCCN)NC(=O)[C@H](CCCCN)NC(=O)[C@@H]1CCCN1C(=O)[C@@H]1CCCN1C(=O)[C@@H](Nc1c2ccccc2nc2ccccc12)[C@@H](C)O)C(=O)N[C@@H](CCC(=O)O)C(=O)N[C@@H](CC(=O)O)C(=O)N1CCC[C@H]1C(=O)N[C@@H](CCCCN)C(=O)N[C@@H](CCCCN)C(=O)N[C@@H](CCCCN)C(=O)N[C@@H](CCCCN)C(=O)N[C@@H](CCCCN)C(=O)O [peptide 1, Acr-NLS-CTS] (H-[X1]PPKKKRKVEDPKKKKK-OH)
toxicity to CHO cells: not toxic
